Assay results as given in publication PMC6009984, “Synthesis and biological evaluation of benzenesulphonamide-bearing 1,4,5-trisubstituted-1,2,3-triazoles possessing human carbonic anhydrase I, II, IV, and IX inhibitory activity” (Journal of Enzyme Inhibition and Medicinal Chemistry, 2017).

Assays:
hCA IV = hCA IV (Homo sapiens, UniProt P22748); experiment: stopped-flow CO2 hydrase assay, hCA IV
hCA II = hCA II (Homo sapiens, UniProt P00918); experiment: stopped-flow CO2 hydrase assay, hCA II; settings: Ki (nM) hCA II, cytosolic isoform; mean from three different assays, stopped flow technique, errors ±5–10%
hCA I = hCA I (Homo sapiens, UniProt P00915); experiment: stopped-flow CO2 hydrase assay, hCA I
Sequence of hCA I (P00915 whole entry): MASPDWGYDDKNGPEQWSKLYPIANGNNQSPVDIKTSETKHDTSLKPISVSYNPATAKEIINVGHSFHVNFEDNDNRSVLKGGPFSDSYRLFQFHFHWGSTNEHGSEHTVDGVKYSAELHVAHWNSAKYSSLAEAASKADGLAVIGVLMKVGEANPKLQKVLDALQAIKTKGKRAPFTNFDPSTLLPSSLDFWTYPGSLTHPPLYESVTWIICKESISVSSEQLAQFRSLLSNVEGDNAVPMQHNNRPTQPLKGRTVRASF

hCA IX = hCA IX (Homo sapiens, UniProt Q16790); experiment: stopped-flow CO2 hydrase assay, hCA IX

Sequence of hCA IV (P22748 19-312): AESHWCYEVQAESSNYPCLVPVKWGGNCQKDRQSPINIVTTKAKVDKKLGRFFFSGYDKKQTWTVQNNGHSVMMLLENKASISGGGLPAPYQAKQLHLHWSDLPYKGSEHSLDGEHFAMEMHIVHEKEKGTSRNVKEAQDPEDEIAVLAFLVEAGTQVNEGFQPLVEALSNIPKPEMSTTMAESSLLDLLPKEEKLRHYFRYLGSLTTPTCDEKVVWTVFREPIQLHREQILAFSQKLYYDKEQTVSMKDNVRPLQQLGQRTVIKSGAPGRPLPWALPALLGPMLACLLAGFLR

Row | Compound | Ki (hCA IV) [nM] | melting point [°C] | Ki (hCA II) [nM] | Ki (hCA I) [nM] | Ki (hCA IX) [nM]
1 | Cc1c(C(N)=O)nnn1-c1ccc(S(N)(=O)=O)cc1 [Compound 6a, 1-[4-(Aminosulfonyl)phenyl]-5-methyl-1H-1,2,3-triazole-4-carboxamide] | 212 | 314 to 316 | 1.9 | 8.3 | 9.5
2 | NS(=O)(=O)c1ccc(-n2nnc(C(=O)O)c2-c2ccccc2)cc1 [Compound 5b, 1-[4-(Aminosulfonyl)phenyl]-5-phenyl-1H-1,2,3-triazole-4-carboxylic acid] | 55.3 |  | 97.9 | 646 | 45.9
3 | CCOC(=O)c1nnn(-c2ccc(S(N)(=O)=O)cc2)c1-c1ccccc1 [Compound 4b, Ethyl 1-[4-(aminosulfonyl)phenyl]-5-phenyl-1H-1,2,3-triazole-4-carboxylate] | 5.1 | 184 | 6 | 246 | 9.5
4 | COc1ccc(-c2c(C(N)=O)nnn2-c2ccc(S(N)(=O)=O)cc2)cc1 [Compound 6c, 1-[4-(Aminosulfonyl)phenyl]-5-(4-methoxyphenyl)-1H-1,2,3-triazole-4-carboxamide] | 1.7 | 280 to 282 | 6.2 | 874 | 6.8
5 | NS(=O)(=O)c1ccc(-n2nnc(C(=O)O)c2-c2ccc3ccccc3c2)cc1 [Compound 5d, 1-[4-(Aminosulfonyl)phenyl]-5-(2-naphthyl)-1H-1,2,3-triazole-4-carboxylic acid] | 4.1 | 198 to 200 | 8.9 | 56.2 | 4.2
6 | CCOC(=O)c1nnn(-c2ccc(S(N)(=O)=O)cc2)c1-c1ccc(OC)cc1 [Compound 4c, Ethyl 1-[4-(aminosulfonyl)phenyl]-5-(4-methoxyphenyl)-1H-1,2,3-triazole-4-carboxylate] | 4.5 | 176 | 6.1 | 63 | 40
7 | COc1ccc(-c2c(C(=O)O)nnn2-c2ccc(S(N)(=O)=O)cc2)cc1 [Compound 5c, 1-[4-(Aminosulfonyl)phenyl]-5-(4-methoxyphenyl)-1H-1,2,3-triazole-4-carboxylic acid] | 2.4 | 148 to 150 | 9 | 489 | 42.3
8 | CCOC(=O)c1nnn(-c2ccc(S(N)(=O)=O)cc2)c1-c1ccc2ccccc2c1 [Compound 4d, Ethyl 1-[4-(aminosulfonyl)phenyl]-5-(2-naphthyl)-1H-1,2,3-triazole-4-carboxylate] | 5 | 180 | 5.8 | 68.2 | 7.1
9 | CCOC(=O)c1nnn(-c2ccc(S(N)(=O)=O)cc2)c1C [Compound 4a, Ethyl 1-[4-(aminosulfonyl)phenyl]-5-methyl-1H-1,2,3-triazole-4-carboxylate] | 3.5 |  | 3.2 | 9.1 | 6.6
10 | NC(=O)c1nnn(-c2ccc(S(N)(=O)=O)cc2)c1-c1ccccc1 [Compound 6b, 1-[4-(Aminosulfonyl)phenyl]-5-phenyl-1H-1,2,3-triazole-4-carboxamide] | 1.4 | 210 | 9.1 | 69.1 | 28.3
11 | Cc1c(C(=O)NN)nnn1-c1ccc(S(N)(=O)=O)cc1 [Compound 7a, 4-[4-(Hydrazinocarbonyl)-5-methyl-1H-1,2,3-triazol-1-yl]benzenesulphonamide] | 228 |  | 7.6 | 15.1 | 9.3
12 | Cc1c(C(=O)O)nnn1-c1ccc(S(N)(=O)=O)cc1 [Compound 5a, 1-[4-(Aminosulfonyl)phenyl]-5-methyl-1H-1,2,3-triazole-4-carboxylic acid] | 269 | 198 | 1.6 | 9.6 | 8.5
13 | NC(=O)c1nnn(-c2ccc(S(N)(=O)=O)cc2)c1-c1ccc2ccccc2c1 [Compound 6d, 1-[4-(Aminosulfonyl)phenyl]-5-(2-naphthyl)-1H-1,2,3-triazole-4-carboxamide] | 4 | 278 to 280 | 6 | 772 | 6.7

The next lines start with the values.

Row | Ki (hCA IV) [nM] | melting point [°C] | Ki (hCA II) [nM] | Ki (hCA I) [nM] | Ki (hCA IX) [nM] | Compound
14 | 1.9 | 212 to 214 | 8.1 | 214 | 7.8 | NS(=O)(=O)c1ccc(-n2nnc(CO)c2-c2ccc3ccccc3c2)cc1 [Compound 8d, 4-(4-(Hydroxymethyl)-5-(2-naphthyl)-1H-1,2,3-triazol-1-yl)benzenesulphonamide]
15 | 4 | 170 to 172 | 5.6 | 91.2 | 8.1 | COc1ccc(-c2c(C(=O)NN)nnn2-c2ccc(S(N)(=O)=O)cc2)cc1 [Compound 7c, 4-[4-(Hydrazinocarbonyl)-5-(4-methoxyphenyl)-1H-1,2,3-triazol-1-yl]benzenesulphonamide]
16 | 22.7 | 206 | 38 | 73.7 | 26.1 | NNC(=O)c1nnn(-c2ccc(S(N)(=O)=O)cc2)c1-c1ccccc1 [Compound 7b, 4-[4-(Hydrazinocarbonyl)-5-phenyl-1H-1,2,3-triazol-1-yl]benzenesulphonamide]
17 | 1.9 | 180 to 182 | 4 | 812 | 5.8 | COc1ccc(-c2c(CO)nnn2-c2ccc(S(N)(=O)=O)cc2)cc1 [Compound 8c, 4-(4-(Hydroxymethyl)-5-(4-methoxyphenyl)-1H-1,2,3-triazol-1-yl)benzenesulphonamide]
18 | 360 | 184 | 58.9 | 354 | 30.6 | Cc1c(CO)nnn1-c1ccc(S(N)(=O)=O)cc1 [Compound 8a, 4-(4-(Hydroxymethyl)-5-methyl-1H-1,2,3-triazol-1-yl)benzenesulphonamide]
19 | 8.4 | 174 to 176 | 9.4 | 78.9 | 58.7 | NS(=O)(=O)c1ccc(-n2nnc(CO)c2-c2ccccc2)cc1 [Compound 8b, 4-(4-(Hydroxymethyl)-5-phenyl-1H-1,2,3-triazol-1-yl)benzenesulphonamide]
20 | 2 | 156 | 1.6 | 82.5 | 7.2 | NNC(=O)c1nnn(-c2ccc(S(N)(=O)=O)cc2)c1-c1ccc2ccccc2c1 [Compound 7d, 4-[4-(Hydrazinocarbonyl)-5-(2-naphthyl)-1H-1,2,3-triazol-1-yl]benzenesulphonamide]
